What follows are compounds tested on rice blast fungi.
Type: in vivo, Pyricularia grisea

Compound	Inhibiting Ratio (%) (at 250 ppm)
Br.CC(C)=CCOc1cc(N=c2scc(CC(=O)Nc3ccccc3)n2C)c(F)cc1Cl [Compound 70, 2-(4-chloro-2-fluoro-5-(3,3,-dimethylallyloxy)phenylimino)-3-methyl-4-(N-phenylcarbamoylmethyl)-1,3-thiazol-4-ine hydrobromide]	96
COc1ccc(N=c2scc(CC(=O)Nc3ccccc3F)n2C)cc1.Cl [Compound 78, 2-(4-methoxyphenylimino)-3-methyl-4-[N-(2-fluorophenyl)carbamoylmethyl]-1,3-thiazol-4-ine hydrochloride]	91
Cl.Cn1c(CC(=O)Nc2ccccc2F)csc1=Nc1ccc(OC(F)(F)F)cc1 [Compound 79, 2-(4-trifluoromethoxyphenylimino)-3-methyl-4-[N-(2-fluorophenyl)carbamoylmethyl]-1,3-thiazol-4-ine hydrochloride]	90
Cl.Cn1c(CC(=O)Nc2ccccc2F)csc1=Nc1ccccc1F [Compound 89, 2-(2-fluorophenylimino)-3-methyl-4-[N-(2-fluorophenyl)carbamoylmethyl]-1,3-thiazol-4-ine hydrochloride]	83
Cl.Cn1c(CC(=O)Nc2ccccc2F)csc1=Nc1cccc(Cl)c1 [Compound 90, 2-(3-chlorophenylimino)-3-methyl-4-[N-(2-fluoro)phenylcarbamoylmethyl]-1,3-thiazol-4-ine hydrochloride]	91
Cl.Cn1c(CC(=O)Nc2ccc(Cl)cc2)csc1=Nc1ccc(C(F)(F)F)cc1 [Compound 98, 2-(4-trifluoromethylphenylimino)-3-methyl-4-[N-(4-chlorophenyl)carbamoylmethyl]-1,3-thiazol-4-ine hydrochloride]	96
COc1ccc(NC(=O)Cc2csc(=Nc3cc(Cl)cc(Cl)c3)n2C)cc1.Cl [Compound 102, 2-(3,5-dichlorophenylimino)-3-methyl-4-[N-(4-methoxyphenyl)carbamoylmethyl]-1,3-thiazol-4-ine hydrochloride]	93
COc1ccc(NC(=O)Cc2csc(=Nc3ccc(Cl)cc3)n2C)cc1.Cl [Compound 104, 2-(4-chlorophenylimino)-3-methyl-4-[N-(4-methoxyphenyl)carbamoylmethyl]-1,3-thiazol-4-ine hydrochloride]	93
CC(C)Oc1ccc(N=c2scc(CC(=O)Nc3ccccc3F)n2C)cc1.Cl [Compound 105, 2-(4-isopropoxyphenylimino)-3-methyl-4-[N-(2-fluorophenyl)carbamoylmethyl]-1,3-thiazol-4-ine hydrochloride]	90
Cl.Cn1c(CC(=O)Nc2ccc(OC(F)(F)F)cc2)csc1=Nc1ccc(OC(F)(F)F)cc1 [Compound 108, 2-(4-trifluoromethoxyphenylimino)-3-methyl-4-[N-(4-trifluoromethoxyphenyl)carbamoylmethyl]-1,3-thiazol-4-ine hydrochloride]	91
COc1ccc(N=c2scc(CC(=O)Nc3ccc(Cl)cc3)n2C)cc1.Cl [Compound 118, 2-(4-methoxyphenylimino)-3-methyl-4-[N-(4-chlorophenyl)carbamoylmethyl]-1,3-thiazol-4-ine hydrochloride]	99
CCCCc1ccc(N=c2scc(CC(=O)Nc3ccc(Cl)cc3)n2C)cc1.Cl [Compound 124, 2-[4-(n-butyl)phenylimino]-3-methyl-4-[N-(4-chlorophenyl)carbamoylmethyl]-1,3-thiazol-4-ine hydrochloride]	93
Cl.Cn1c(CC(=O)Nc2ccc(Cl)cc2)csc1=Nc1cccc(F)c1 [Compound 129, 2-(3-fluorophenylimino)-3-methyl-4-[N-(4-chlorophenyl)carbamoylmethyl]-1,3-thiazol-4-ine hydrochloride]	96
Cl.Cn1c(CC(=O)Nc2ccc(Cl)cc2)csc1=Nc1ccc(Br)cc1 [Compound 130, 2-(4-bromophenylimino)-3-methyl-4-[N-(4-chlorophenyl)carbamoylmethyl]-1,3-thiazol-4-ine hydrochloride]	98
Cl.Cn1c(CC(=O)Nc2ccc(Cl)cc2)csc1=Nc1ccccc1-c1ccccc1 [Compound 131, 2-(2-phenylphenylimino)-3-methyl-4-[N-(4-chlorophenyl)carbamoylmethyl]-1,3-thiazol-4-ine hydrochloride]	96
Cl.Cn1c(CC(=O)Nc2ccc(Br)cc2)csc1=Nc1ccc(C(F)(F)F)cc1 [Compound 132, 2-(4-trifluoromethylphenylimino)-3-methyl-4-[N-(4-bromophenyl)carbamoylmethyl]-1,3-thiazol-4-ine hydrochloride]	99
Cl.Cn1c(CC(=O)Nc2ccc(Br)cc2)csc1=Nc1ccc(F)cc1F [Compound 133, 2-(2,4-difluorophenylimino)-3-methyl-4-[N-(4-bromophenyl)carbamoylmethyl]-1,3-thiazol-4-ine hydrochloride]	99

Compound	Inhibiting Ratio (%) (at 250 ppm)
Cl.Cn1c(CC(=O)Nc2ccc(Br)cc2)csc1=Nc1cccc(Cl)c1F [Compound 134, 2-(3-chloro-2-fluorophenylimino)-3-methyl-4-[N-(4-bromophenyl)carbamoylmethyl]-1,3-thiazol-4-ine hydrochloride]	98
Cc1ccc(N=c2scc(CC(=O)Nc3ccc(Br)cc3)n2C)c(C)c1.Cl [Compound 135, 2-(2,4-dimethylphenylimino)-3-methyl-4-[N-(4-bromophenyl)carbamoylmethyl]-1,3-thiazol-4-ine hydrochloride]	98
Cl.Cn1c(CC(=O)Nc2ccc(Br)cc2)csc1=Nc1ccc(F)cc1 [Compound 136, 2-(4-fluorophenylimino)-3-methyl-4-[N-(4-bromophenyl)carbamoylmethyl]-1,3-thiazol-4-ine hydrochloride]	97
Cl.Cn1c(CC(=O)Nc2ccc(Br)cc2)csc1=Nc1cccc(Br)c1 [Compound 137, 2-(3-bromophenylimino)-3-methyl-4-[N-(4-bromophenyl)carbamoylmethyl]-1,3-thiazol-4-ine hydrochloride]	97
Cl.Cn1c(CC(=O)Nc2ccc(Br)cc2)csc1=Nc1cc(Cl)cc(Cl)c1 [Compound 138, 2-(3,5-dichlorophenylimino)-3-methyl-4-[N-(4-bromophenyl)carbamoylmethyl]-1,3-thiazol-4-ine hydrochloride]	95
Cl.Cn1c(CC(=O)Nc2ccc(Br)cc2)csc1=Nc1ccc(OC(F)(F)F)cc1 [Compound 139, 2-(4-trifluoromethoxyphenylimino)-3-methyl-4-[N-(4-bromophenyl)carbamoylmethyl]-1,3-thiazol-4-ine hydrochloride]	99
Cl.Cn1c(CC(=O)Nc2ccc(Br)cc2)csc1=Nc1ccc(F)cc1Cl [Compound 140, 2-(2-chloro-4-fluorophenylimino)-3-methyl-4-[N-(4-bromophenyl)carbamoylmethyl]-1,3-thiazol-4-ine hydrochloride]	99
Cl.Cn1c(CC(=O)Nc2ccc(Br)cc2)csc1=Nc1ccc(Oc2ccccc2)cc1 [Compound 141, 2-(4-phenoxyphenylimino)-3-methyl-4-[N-(4-bromophenyl)carbamoylmethyl]-1,3-thiazol-4-ine hydrochloride]	99
Cc1cc(Br)ccc1N=c1scc(CC(=O)Nc2ccc(Br)cc2)n1C.Cl [Compound 142, 2-(4-bromo-2-methylphenylimino)-3-methyl-4-[N-(4-bromophenyl)carbamoylmethyl]-1,3-thiazol-4-ine hydrochloride]	98
Cl.Cn1c(CC(=O)Nc2ccc(Br)cc2)csc1=Nc1ccc(Br)cc1 [Compound 143, 2-(4-bromophenylimino)-3-methyl-4-[N-(4-bromophenyl)carbamoylmethyl]-1,3-thiazol-4-ine hydrochloride]	95
Cl.Cn1c(CC(=O)Nc2ccc(Br)cc2)csc1=Nc1ccc([N+](=O)[O-])cc1 [Compound 144, 2-(4-nitrophenylimino)-3-methyl-4-[N-(4-bromophenyl)carbamoylmethyl]-1,3-thiazol-4-ine hydrochloride]	97
CCCCc1ccc(N=c2scc(CC(=O)Nc3ccc(Br)cc3)n2C)cc1.Cl [Compound 147, 2-[4-(n-butyl)phenylimino]-3-methyl-4-[N-(4-bromophenyl)carbamoylmethyl]-1,3-thiazol-4-ine hydrochloride]	96
Cl.Cn1c(CC(=O)Nc2ccc(Br)cc2)csc1=Nc1ccccc1F [Compound 148, 2-(2-fluorophenylimino)-3-methyl-4-[N-(4-bromophenyl)carbamoylmethyl]-1,3-thiazol-4-ine hydrochloride]	95
Cl.Cn1c(CC(=O)Nc2ccccc2F)csc1=Nc1ccc(F)c(Cl)c1 [Compound 149, 2-(3-chloro-4-fluorophenylimino)-3-methyl-4-[N-(2-fluorophenyl)carbamoylmethyl]-1,3-thiazol-4-ine hydrochloride]	95
Cl.Cn1c(CC(=O)Nc2ccccc2F)csc1=Nc1ccc(Cl)cc1F [Compound 150, 2-(4-chloro-2-fluorophenylimino)-3-methyl-4-[N-(2-fluorophenyl)carbamoylmethyl]-1,3-thiazol-4-ine hydrochloride]	96
CC(C)Oc1cc(N=c2scc(CC(=O)Nc3ccccc3F)n2C)c(F)cc1Cl.Cl [Compound 151, 2-(4-chloro-2-fluoro-5-isopropoxyphenylimino)-3-methyl-4-[N-(2-fluorophenyl)carbamoylmethyl]-1,3-thiazol-4-ine hydrochloride]	96
Cl.Cn1c(CC(=O)Nc2ccccc2F)csc1=Nc1cccc(Br)c1 [Compound 153, 2-(3-bromophenylimino)-3-methyl-4-[N-(2-fluorophenyl)carbamoylmethyl]-1,3-thiazol-4-ine hydrochloride]	99

Reference: patent US6921770B2 (priority 2000, dated 2005)
